According to patent EP3714904B1, “IMINODIACETIC ACID SUBSTITUTED CYCLODEXTRINS AS POTENTIATORS OF BETA-LACTAM ANTIBIOTICS” (NATIONAL CENTER FOR SCIENTIFIC RESEARCH "DEMOKRITOS" (NCSRD), priority 2019, dated 2020):

How the values were obtained:
[1] = test system: NDM producing K. pneumoniae clinical strain LA26; test: Murine sepsis model: 2-hour intervals treatment scheme; assay type: in vivo, CD-1 mice; conditions: for mice protected (survival): intraperitoneal, 140 hours
Method: Example 7. […] The animals were rendered neutropenic (<100 neutrophils/mm^3) by intraperitoneal injection of 150 and 100 mg/kg of cyclophosphamide at day -4 and day -1, respectively, before infection. […] The meropenem/ β-IDACYD combination was administrated in all dosing schemes simultaneously. […] Blood samples were taken 0, 6, 24 hours and 7 days after injection of a single dose of antibiotic (five infected animals for each timepoint) were serially diluted in normal saline (10^-1 to 10^-9) and plated on MH agar plates which were incubated for 16 hours at 37°C for determination of viable organisms. All mice that were alive were euthanised 7 days post infection and spleen and liver were harvested. The organs were placed into 1 mL of normal saline on ice and then homogenised. The organ homogenates were then serially diluted in normal saline (10^-1 to 10^-9) and plated on MH agar for CFU enumeration. Without therapy 90% of mice succumbed to the infection within 24 hours. […] Finally, the bacterial load in the spleen was relieved by 4.2 log10 compared to that of the antibiotic itself. In Fig.6 is shown the bacterial load (CFU/mL) (A) and survival percentage (B) of CD-1 mice infected with a lethal dose (10^7 CFU) of NDM-1 producing K. pneumoniae strain LA26. […] Treatment (initiated at 2 hours post infection) was given every 2h for a 24h period and blood was drawn 0 h, 6 h, 24 h and 140 h post treatment initiation. All groups were of n=10. Spleen and liver (C) from n=5 mice were also removed at 140 h post-treatment initiation the bacterial load [log (CFU/organ)] was determined. Error bars are indicative of SEM (n=2 replicates).

[2] = test system: NDM-1 producing K. pneumoniae strain LA26; test: Murine sepsis model: single dose treatment scheme-2; assay type: in vivo, CD-1 mice
Method: Example 9. […] Blood samples were collected at 0, 6 and 24 hours after injection of a single dose of antibiotic (4 infected animals for each timepoint), were serially diluted in normal saline (10^-1 to 10^-9) and plated on MH agar plates which were incubated for 16 hours at 37°C for determination of viable organisms. […] The resulting 3.0log10 reduction in the blood bacterial load in the presence of 120 mg/kg of the inhibitor β-IDACYD compared to the antibiotic itself confirmed the high repotentiation abilities of the inhibitor to carbapenems even for suboptimal antibiotic doses. […] Treatment was given in a form of a single shot 2h after infection and blood was drawn 0h, 6h and 24h post treatment initiation. All groups were of n=10. Error bars are indicative of SEM (n=2 replicates).

[3] = Plasma levels of metal ions, creatinine and urea in infected mice; assay type: in vivo, CD-1 mice; conditions: 30 mg/kg meropenem + 20 mg/kg β-IDACYD every 2 h for 24 h, 0 h, 6 h, 140 h
Method: Example 10. Examination of the cross-reactivity of β-IDACYD with vital metal ions in mouse plasma and of induction of immune responses in infected mice: In order to examine a potential cross-reactivity of the β-IDACYD with metal ions necessary for the maintenance of homeostasis, plasma was isolated by centrifugation (3,000 rpm, 5 min) from all blood samples collected. The plasma levels of four metal ions (calcium, magnesium, phosphate and iron) as well as the levels of creatinine and urea were determined using an Olympus AU 600 analyser. […] In Fig. 8 is shown the plasma concentration in mg/dL of calcium, iron, phosphate and magnesium ions, as well as urea and creatinine derived from CD-1 mice infected with a lethal dose (10^7 CFU) of NDM-1 producing K. pneumoniae strain LA26. […] Treatment was given every 2h for a 24h period and blood was drawn and plasma was isolated at time points 0h, 6h, 24h and 140h (7d) post treatment initiation.

[4] = test system: MBL producing clinical strains; test: MIC potentiation over the whole collection of isolates; assay type: cell-based; conditions: 50 µM β-IDACYD
Method: Further the in-vitro inhibitory activity of IDACYDs was tested against highly resistant pathogens. Tables 3, 4 and 5 show the effect of IDACYDs using a collection of 36 highly resistant Gram negative strains (Table 2, Kirby-Bauer disc diffusion method) producing NDM, VIM and IMP type MBLs as well as 6 isolates expressing serine beta-lactamases (ESBLs, AmpCs). […] Clinical isolates co-expressing ESBLs and/or AmpC β-lactamases along with MBLs where re-sensitized to both imipenem and meropenem, as expected. Table 2: Collection of clinical isolates used for in-vitro evaluation

VIM-1 = VIM-1 (Pseudomonas aeruginosa, UniProt A0A0F7KYQ8); test: Spectrophotometric IC50 determination against MBL; assay type: biochemical; conditions: ± 1.07
NDM-1 = NDM-1 (Klebsiella pneumoniae, UniProt C7C422); test: Spectrophotometric IC50 determination against MBL; assay type: biochemical; conditions: ± 0.32
NDM-1, sequence (C7C422 29-270, looked up): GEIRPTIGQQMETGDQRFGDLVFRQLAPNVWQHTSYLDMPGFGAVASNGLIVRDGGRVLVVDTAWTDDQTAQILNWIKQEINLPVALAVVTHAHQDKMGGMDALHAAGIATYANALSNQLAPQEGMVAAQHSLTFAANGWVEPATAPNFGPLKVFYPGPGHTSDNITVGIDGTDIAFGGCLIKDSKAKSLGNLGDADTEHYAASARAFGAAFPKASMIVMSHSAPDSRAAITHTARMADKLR

[5] = test system: NDM, VIM and IMP producing K. pneumoniae clinical isolates; test: Time kill assays; assay type: cell-based
Method: In Fig. 3 the results of the time-kill assays are shown. […] Results are expressed as log10 CFU/mL. Experiments were performed in duplicate. Antibiotic-free control cultures were included in each set of experiments as controls. Error bars are indicative of standard error mean (SEM) (n=2 replicates).

[6] = assay type: in vivo; conditions: dosing schemes up to 500 mg/kg
Method: The acute in-vivo toxicity of β-IDACYD was also determined to provide range-finding doses to be used in in-vivo studies and possibly implicate target organs for toxicity.

[7] = Luminex assay of lymphokines, cytokines and pro-inflammatory proteins in plasma of infected mice; assay type: in vivo; conditions: plasma from all the sepsis therapeutic schemes
From the text: As a way to further measure and evaluate the in-vivo potency and safety of β-IDACYD, we determined the levels of a series of lymphokines, cytokines, and pro-inflammatory indicator proteins. The levels of Th17 immune response related ILs 17E, 6, 1β, 4, 21, 10, 17A, 17F, IFN-g, MIP-3a, TNF-a and TNF-b were all determined in a luminex assay using plasma isolated from the mice involved in all the sepsis therapeutic schemes. […] The observation was supported by the levels of the inflammatory response proteins CRP and SAP.

Row | SMILES | mice protected (survival) ([1]; meropenem monotherapy 30 mg/kg every 2 h for 24 h) [%] | protection from death ([2]; meropenem monotherapy, single dose 10 mg/kg, within 48 h) | plasma levels of calcium, magnesium, phosphate, iron, creatinine and urea [3] | cell morphology under a microscope (L929 fibroblast cells) | mice protected (survival) ([1]; 30 mg/kg meropenem + 20 mg/kg β-IDACYD every 2 h for 24 h) [%] | reduction of the bacterial load in the spleen compared to the antibiotic itself ([1]; 30 mg/kg meropenem + 20 mg/kg β-IDACYD every 2 h for 24 h, 140 h) [log10] | reduction of the bacterial load in blood compared to meropenem monotherapy ([1]; 30 mg/kg meropenem + 20 mg/kg β-IDACYD every 2 h for 24 h, 140 hours post treatment initiation) [log10] | reduction of meropenem's and imipenem's minimum inhibitory concentration (MIC) [4] | IC50 (VIM-1) [µM] | IC50 (NDM-1) [µM] | reduction of the bacterial load (CFU/mL) compared to that of the antibiotic alone ([5]; 50 µM β-IDACYD with meropenem or imipenem at MIC or 2xMIC, 24 hour incubation, strains LA26, LA 109/16, 5742) [log10] | bacterial load in time-kill assay ([5]; β-IDACYD 50 µM added to MIC or 2xMIC meropenem or imipenem) | acute in-vivo toxicity [6] | immune response (Th17 related ILs, IFN-g, MIP-3a, TNF-a, TNF-b; CRP, SAP) [7] | reduction in the blood bacterial load compared to the antibiotic itself ([2]; single dose 10 mg/kg meropenem + 120 mg/kg β-IDACYD) [log10] | mice rescued (survival) ([2]; single dose 10 mg/kg meropenem + 120 mg/kg β-IDACYD, within 48 h) [%]
1 | C[C@@H](O)[C@H]1C(=O)N2C(C(=O)O)=C(S[C@@H]3CN[C@H](C(=O)N(C)C)C3)[C@H](C)[C@H]12 [Meropenem, reference compound] | 80 | unable to protect any mice from death |  |  |  |  |  |  |  |  |  |  |  |  |  | 
2 | CO[C@@H]1[C@@H](OC)[C@H]2O[C@H]3[C@H](OC)[C@@H](OC)[C@@H](O[C@H]4[C@H](OC)[C@@H](OC)[C@@H](O[C@H]5[C@H](OC)[C@@H](OC)[C@@H](O[C@H]6[C@H](OC)[C@@H](OC)[C@@H](O[C@H]7[C@H](OC)[C@@H](OC)[C@@H](O[C@H]8[C@H](OC)[C@@H](OC)[C@@H](O[C@@H]1[C@@H](CN(CC(=O)O)CC(=O)O)O2)O[C@@H]8CN(CC(=O)O)CC(=O)O)O[C@@H]7CN(CC(=O)O)CC(=O)O)O[C@@H]6CN(CC(=O)O)CC(=O)O)O[C@@H]5CN(CC(=O)O)CC(=O)O)O[C@@H]4CN(CC(=O)O)CC(=O)O)O[C@@H]3CN(CC(=O)O)CC(=O)O [β-IDACYD] |  |  | well within the control group range at all times | did not present any morphological differences characteristic of cytotoxicity | 90 | 4.2 | 4.0 | up to 256 fold | 15 | 1.63 | > 8 | bacterial load remains close to zero | no deaths and no signs indicative of acute toxicity | at no times induced an immune response | 3.0 | 50
